Molecular target: human cannabinoid receptor 2 (hCB2R) (Homo sapiens, UniProt P34972)
Format: binding

human cannabinoid receptor 2 (hCB2R), sequence (P34972 whole entry): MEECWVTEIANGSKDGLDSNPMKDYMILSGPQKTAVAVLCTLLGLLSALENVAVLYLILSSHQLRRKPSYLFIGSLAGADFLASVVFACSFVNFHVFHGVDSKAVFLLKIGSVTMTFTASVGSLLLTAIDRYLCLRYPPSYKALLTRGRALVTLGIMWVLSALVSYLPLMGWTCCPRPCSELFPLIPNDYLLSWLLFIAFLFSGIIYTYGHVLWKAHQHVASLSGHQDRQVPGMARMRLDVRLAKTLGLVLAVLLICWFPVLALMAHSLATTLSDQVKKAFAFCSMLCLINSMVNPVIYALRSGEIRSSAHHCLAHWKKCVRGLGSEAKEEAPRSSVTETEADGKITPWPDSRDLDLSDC

For CC(C)(CCCCCCN=C=S)c1cc(O)c2c(c1)OC(C)(C)[C@H]1CC[C@@H](CO)C[C@@H]21 [AM-841], the “% (TMH6 covalently modified)” value was ~ 75 % (TMH6 covalently modified).
